Data published in patent publication US20170049843A1, “Hepatocyte Growth Factor Mimics as Therapeutic Agents” (WASHINGTON STATE UNIVERSITY, priority 2011, published 2017).
Counter-ions that a name gives are not always drawn. Where a SMILES comes first, the peptide text is derived from it. Where no end group is shown, it is not given here. [ ]: non-standard residue; d: D form. dNle = CCCC[C@@H](N)C(=O)O; Ahx = NCCCCCC(=O)O; GABA = NCCCC(=O)O

Legend:
[1] = tested on: scopolamine treated rats; assay: Morris water maze, scopolamine amnesia model; format: in vivo, rat; conditions: for mean latency to find the pedestal, final day of training / mean latency to find the pedestal, fourth day of training / mean latency to find the pedestal, day one of training: icv, scopolamine 70 nmol, Dihexa 300 pmol, Hinge 300 pmol; for mean latency to find the pedestal, final day of training / mean latency to find the pedestal, fourth day of training: vehicle 43.0 s; for mean latency to find the pedestal, day one of training: vehicle 89.3 s
[2] = tested on: hippocampal neurons; assay: Spinogenesis in mRFP-β-actin transfected dissociated hippocampal neurons; format: cell-based, rat
Method: Hippocampal neurons ([…] cells per square cm) were cultured from P1 Sprague Dawley rats on plates coated with poly-L-lysine from Sigma (St. Louis, Mo.; molecular weight 300,000). Hippocampal neurons were maintained in Neurobasal A media from Invitrogen (Carlsbad, Calif.) supplemented with B27 from Invitrogen, 0.5 mM L-glutamine, and […] cytosine-D-arabinofuranoside from Sigma added at 2 days in vitro. Hippocampal neurons were then cultured a further 3-7 days, at which time they were either transfected or treated with various pharmacological reagents as described in (Wayman, Davare et al. 2008).
Neurons were transfected with mRFP-β-actin on day in vitro 6 (DIV6) using LipofectAMINE™ 2000 (Invitrogen) according to the manufacturer's protocol. This protocol yielded the desired 3-5% transfection efficiency thus enabling the visualization of individual neurons. Higher efficiencies obscured the dendritic arbor of individual neurons. Expression of fluorescently tagged actin allowed clear visualization of dendritic spines, as dendritic spines are enriched in actin. On DIV7 the cells were treated with vehicle (H20) or peptides (as described in the text) added to media. On DIV12 the neurons were fixed (4% paraformaldehyde, 3% sucrose, 60 mM PIPES, 25 mM HEPES, 5 mM EGTA, 1 mM MgCl2, pH 7.4) for 20 min at room temperature and mounted. Slides were dried for at least 20 hours at 4° C. and fluorescent images were obtained with Slidebook 4.2 Digital Microscopy Software driving an Olympus IX81 inverted confocal microscope with a 60× oil immersion lens, NA 1.4 and resolution 0.280 μm Dendritic spine density was measured on primary and secondary dendrites at a distance of at least 150 μm from the soma. Five 50 μm long segments of dendrite from at least 10 neurons per data point were analyzed for each data point reported. Each experiment was repeated at least three times using independent culture preparations. Dendrite length was determined using the National Institutes of Health's Image J 1.41o program (NIH, Bethesda, Md.) and the neurite tracing program Neuron J (Meijering, Jacob et al. 2004) Spines were manually counted.
Hippocampal neurons (2×10^5 cells per square centimeter) were cultured from P1-2 Sprague Dawley rats on plates coated with poly-L-lysine from Sigma (St. Louis, Mo.; molecular weight 300,000). Hippocampal neurons were maintained in Neurobasal A media from Invitrogen (Carlsbad, Calif.) supplemented with B27 from Invitrogen, 0.5 mM L-glutamine, and […] cytosine-D-arabinofuranoside from Sigma added at 2 days in vitro. Hippocampal neurons were then cultured a further 3-7 days, at which time they were either transfected or treated with various pharmacological reagents as described in the text or figure legends.

[3] = tested on: MDCK cells; assay: Inhibition of HGF-dependent scattering in MDCK cells; format: cell-based, canine; conditions: for inhibition of HGF-dependent scattering in MDCK cells: HGF 20 ng/ml, 48 h
Method: (§1) MDCK cells were grown to 100% confluency on the coverslips in six-well plates and washed twice with PBS. The confluent coverslips were then aseptically transferred to new six well plates containing 900 μl serum free DMEM. Norleual, Hinge peptide, and/or HGF (20 ng/ml) were added to appropriate wells. Control wells received PBS vehicle. Plates were incubated at 37° C. with 5% CO2 for 48 hours. Media was removed and cells were fixed with methanol. Cells were stained with Diff-Quik Wright-Giemsa (Dade-Behring, Newark, Del.) and digital images were taken. Coverslips were removed with forceps and more digital images were captured. Pixel quantification of images was achieved using Image J and statistics were performed using Prism 5 and InStat v.3.05.
as §1, with “h.” for “hours.”, “v.3.05 (GraphPad; San Diego, Calif.).” for “v.3.05.”

[4] = tested on: Met; assay: Inhibition of HGF-dependent Met phosphorylation in HEK293 cells; format: cell-based, human; conditions: 10 min
Method: HEK293 cells were seeded in 6 well tissue culture plates and grown to 95% confluency in DMEM containing 10% FBS. The cells were serum deprived for 24 h prior to the treatment to reduce the basal levels of phospho-Met. Following serum starvation, cocktails comprised of vehicle and HGF with/without 6-AH analogs were prepared and pre-incubated for 30 min at room temperature. The cocktail was then added to the cells for 10 min to stimulate the Met receptor and downstream proteins. Cells were harvested using RIPA lysis buffer (Millipore; Billerica, Mass.) fortified with phosphatase inhibitor cocktails 1 and 2 (Sigma-Aldrich; St. Louis, Mo.). The lysate was clarified by centrifugation at 15,000 n×g for 15 min, protein concentrations were determined using the BCA total protein assay (Pierce), and then appropriate volumes of the lysates were diluted with 2× reducing Laemmli buffer and heated for ten min at 95° C. Samples containing identical amounts of protein were resolved using SDS-PAGE (Criterion, BioRad Laboratories), transferred to nitrocellulose, and blocked in Tris-buffered saline (TBS) containing 5% milk for 1 h at room temperature. The phospho-Met antibody were added to the blocking buffer at a final concentration of 1:1000 and incubated at 4° C. overnight with gentle agitation. The membranes were then washed several times with water and TBS ([…]), a 1:5000 dilution of horseradish-peroxidase conjugated goat anti-rabbit antiserum was added, and the membranes further incubated for 1 h at room temperature. Proteins were visualized using the Supersignal West Pico Chemiluminescent Substrate system (Pierce, Fenton, Mo.) and molecular weights determined by comparison to protein ladders (BenchMark, Invitrogen, and Kaleidoscope, BioRad). Film images were digitized and analyzed using a UVP phosphoimager.

[5] = tested on: MDCK cells; assay: HGF-dependent MDCK cell proliferation (MTT); format: cell-based, canine; conditions: 10^−10 M, 4 days, HGF 10 ng/ml
Method: 5000 MDCK cells were seeded into the wells of a 96 well plates in 10% FBS DMEM. To induce cellular quiescence, the cells were serum deprived for 24 h prior to initiating the treatments. Following serum starvation, 10 ng/ml HGF alone and with various concentrations of 6-AH analogs or PBS vehicle were added to the media. The cells were allowed to grow under these conditions for 4 days with a daily addition of 6-AH analogs. On the fourth day, 1 mg/ml of 1-(4, 5-Dimethylthiazol-2-yl) 3, 5-diphenylformazan reagent (MTT, Sigma-Aldrich) prepared in PBS was added to the cells and incubated for 4 h. Dimethyl sulfoxide diluted in a 0.01M glycine buffer was added to solubilize the cell membranes and the absorbance of reduced MTT in the buffer was quantitated at 590 nm using a plate reader (Biotek Synergy 2, Winooski, Vt.). HGF-dependent proliferation was determined by subtracting the basal proliferation (in the absence of HGF) from total proliferation rates in groups containing HGF.

[6] = molecular target: T1, HGF (Homo sapiens, UniProt P14210); assay: HGF dimerization; format: biochemical; conditions: analog at 10^−10M, 30 minute incubation with heparin
T1 construct: purchased R&D Systems (Minneapolis, Minn.)
Method: HGF dimerization was assessed using PAGE followed by silver staining (Kawas et al., 2011). Human HGF at a concentration of 0.08 ng/μl with or without 6-AH analogs was incubated with heparin at a final concentration of 5 μg/ml. Loading buffer was then added to each sample and the mixture separated by native PAGE using gradient Criterion XT precast gels (4-12% Bis-Tris; Biorad Laboratories, Hercules, Calif.). Next the gel was silver stained for the detection of the HGF monomers and dimers. Bands were quantitated from digital images using a UVP phosphoimager (Upland, Calif.).

[7] = molecular target: T1, HGF; assay: HGF binding, competition with 3H-Hinge
Method: The binding of 6-AH analogs to HGF was assessed by competition using a soluble binding assay. 250 μl of PBS containing human HGF (1.25 ng) were incubated with ^3H-Hinge, the central dimerization domain of HGF, in the presence of varying concentrations of 6-AH analogs between 10^−13 M to 10^−7M (half-log dilutions) for 40 min at 37° C. The incubates were then spun through Bio-Gel P6 spin columns (400 μl packed volume) for 1 min to separate free and bound ^3H-Hinge and the eluent was collected. Five milliliters of scintillation fluid was added to the eluent, which contained the HGF bound ^3H-Hinge, and was then counted using scintillation counter. Total disintegrations per minute of bound ^3H-Hinge were calculated based on machine counting efficiency. The Ki values for the binding of the peptides were determined using the Prism 5. Competition binding curves were performed in triplicate.

[8] = tested on: hippocampal neurons; assay: Whole-cell recordings of mEPSCs in dissociated hippocampal neurons; format: cell-based, rat; parameters: mean mEPSC frequency: unit not given beside the values; conditions: 5 days; Hinge 10^−12 M, HGF 10 ng/ml, Dihexa 10^−12 M, alone or combined; vehicle 5.31±0.35
[9] = Blood stability studies; format: in vitro ADME, rat; conditions: rat, heparinized whole blood, heparinized rat blood, 37° C., single phase exponential decay; read-out: stability t1/2 in blood
Method: At the end of each incubation, 20 μL of Nle^1-AngIV (100 μg/mL) was added to each sample as an internal standard. […] All samples were centrifuged at 4° C., 2300× g for 5 min and the supernatants were transferred to clean tubes.
Samples were then separated by HPLC on an Econosphere C18 (100 mm×2.1 mm) from Grace Davison Discovery Science (Deerfield, Ill.). […] The mobile phase consisted of HPLC water (Sigma St. Louis, Mo.) with 0.1% trifluoroacetic or 0.1% heptafluorobutyric acid (Sigma St. Louis, Mo.) and varying concentrations of ACN or methanol. Separation was carried out using a gradient method, at ambient temperature and a flow rate of 0.3 mL/min (see below for more information). Stability half-lives were determined assuming a normal single phase exponential decay using Prism 5 graphical/statistical program (GraphPad, San Diego, Calif.).

T1 sequence (P14210 32-728): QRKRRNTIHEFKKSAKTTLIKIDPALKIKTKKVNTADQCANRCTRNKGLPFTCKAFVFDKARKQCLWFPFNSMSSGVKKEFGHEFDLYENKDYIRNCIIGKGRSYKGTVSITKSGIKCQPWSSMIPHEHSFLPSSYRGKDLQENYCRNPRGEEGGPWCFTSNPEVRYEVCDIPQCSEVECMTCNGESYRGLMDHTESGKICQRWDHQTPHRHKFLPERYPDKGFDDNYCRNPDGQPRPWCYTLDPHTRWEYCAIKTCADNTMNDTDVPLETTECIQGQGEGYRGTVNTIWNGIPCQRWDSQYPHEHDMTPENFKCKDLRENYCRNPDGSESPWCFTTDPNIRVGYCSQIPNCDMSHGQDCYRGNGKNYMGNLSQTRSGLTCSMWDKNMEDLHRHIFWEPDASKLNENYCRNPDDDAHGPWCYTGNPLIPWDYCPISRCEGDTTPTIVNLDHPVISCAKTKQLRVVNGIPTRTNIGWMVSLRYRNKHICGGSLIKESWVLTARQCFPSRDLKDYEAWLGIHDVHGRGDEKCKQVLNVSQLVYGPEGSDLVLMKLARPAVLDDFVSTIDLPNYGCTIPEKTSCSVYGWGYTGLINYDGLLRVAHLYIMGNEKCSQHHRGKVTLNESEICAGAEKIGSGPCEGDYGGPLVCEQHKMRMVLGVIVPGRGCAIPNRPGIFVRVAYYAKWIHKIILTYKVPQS

With [GABA]-Tyr-Ile [GABA-YI] the “time in the target quadrant, day 9 probe trial” value ([1]; analog 1 nmol icv after scopolamine) was “different than all the other treated groups” and the dendritic spine numbers ([2]; 10^-8 and 10^-10 M) was “increased spine numbers”.

With `CCCC[C@@H](N)C(=O)N[C@@H](Cc1c[nH]c2ccccc12)C(=O)N[C@H](C(=O)NCCCCCC(N)=O)[C@@H](C)CC` [D-Nle-Trp-Ile-NH—(CH2)5—CONH2] (H-[dNle]WI[Ahx]-NH2) the “inhibition of HGF-dependent scattering in MDCK cells” value [3] was “different from the HGF alone group but not different from the control group”, the “inhibition of HGF-dependent Met phosphorylation” value [4] was “intermediate inhibitory activity” and the “inhibition of HGF-dependent MDCK cell proliferation” value [5] was “inhibitory activity, albeit less than that observed with the most potent analogs”. The “inhibition of HGF dimerization” value [6] was “intermediate inhibition of dimerization”, the “inhibition of HGF dimerization” value ([6]; listed as Trp) was “statistically different than the HGF treated group” and the “affinity for HGF (in words)” value [7] was “moderate affinity for HGF”.

For `CN1[C@@H]2C[C@@H](OC(=O)[C@H](CO)c3ccccc3)C[C@H]1[C@@H]1O[C@@H]12` [scopolamine, scopolamine hydrobromide, reference compound], the “mean latency to find the pedestal, final day of training” value [1] was 84.8 s, the “mean latency to find the pedestal, fourth day of training” value [1] was 102.4 s and the “mean latency to find the pedestal, day one of training” value [1] was 114.7 s.

In the case of `CCCC[C@@H](N)C(=O)N[C@@H](CCSC)C(=O)N[C@H](C(=O)NCCCCCC(N)=O)[C@@H](C)CC` [D-Nle-Met-Ile-NH—(CH2)5—CONH2] (H-[dNle]MI[Ahx]-NH2), the “inhibition of HGF-dependent scattering in MDCK cells” value [3] is reported as “not different”, the “inhibition of HGF-dependent Met phosphorylation” value [4] is reported as “no ability to effect on Met activation” and the “inhibition of HGF-dependent Met phosphorylation” value ([4]; listed as Met) is reported as “not different than the HGF group”. For the same compound, the “inhibition of HGF dimerization” value [6] was “unable to block dimerization at the concentration tested” and the “affinity for HGF (in words)” value [7] was “low affinity for HGF”.

In the case of Nle-YIH-amide, the dendritic spine numbers ([2]; 10^-8 and 10^-10 M) is reported as “increased spine numbers”.

With “DYIRNC (Synthetic hinge peptide) [HGF antagonist peptide representing the dimerization (hinge) domain of HGF; also printed KDYIRN, reference compound]” the “inhibition of scattering of MDCK cells by Hinge” value [3] was “inhibit scattering of Madin-Darby canine kidney (MDCK) cells”, the “mean mEPSC frequency” value [8] was 4.51±0.47 and the “mean latency to find the pedestal, final day of training” value [1] was 46.1 s. For the same compound, the “mean latency to find the pedestal, fourth day of training” value [1] was 78.3 s, the “mean latency to find the pedestal, day one of training” value [1] was 111.1 s and the “inhibition of spine formation in stimulated neurons” value ([2]; neurons stimulated with 10 ng/ml HGF, 10^−12 M Nle1-AngIV or 10^−12 M Dihexa) was “effectively inhibit spine formation”. The “effect of Hinge alone on basal spinogenesis” value ([2]; wide range of doses) was “no effect on spinogenesis over a wide range of doses”.

With acetyl-Nle-YIH the dendritic spine numbers ([2]; 10^-8 and 10^-10 M) was “increased spine numbers” and the dendritic spine numbers ([2]; concentrations lower than 10^-10 M) was “increasing spine numbers at even lower concentrations”.

In the case of `CCCC[C@H](N)C(=O)N[C@@H](Cc1ccc(O)cc1)C(=O)N[C@H](CN[C@@H](Cc1c[nH]cn1)C(=O)N1CCC[C@H]1C(=O)N[C@@H](Cc1ccccc1)C(=O)O)CC(C)C` [Norleual, Nle-Tyr-Leu-Ψ-(CH2—NH2)^3-4-His-Pro-Phe, reference compound], the half-life [9] is reported as < 5 min.
